From US9290789B2, “Method for measuring cells, and reagent for cell measurement” (HITACHI HIGH-TECHNOLOGIES CORPORATION, priority 2011, dated 2016)

What was measured:
[1] = test system: Methylobacterium extorquens; assay: Intracellular ATP level by ATP luminescence method; assay type: cell-based
Procedure: An M. extorquens cell suspension was prepared according to the following procedures. M. extorquens was cultured with agitation in 5 mL of SCD liquid medium (Nissui Pharmaceutical Co., Ltd.) for 72 hours at 25° C. The culture solution (medium) was dispensed into tubes, and then centrifuged for 10 minutes at 10000 rpm, so as to collect cells onto the tube bottoms. Supernatant was removed, and then water was added instead, to suspend cells. Centrifugation was performed again for 10 minutes at 10000 rpm, so as to collect cells onto the tube bottoms. This step was repeated 3 times, medium components were removed, and thus a cell suspension was prepared. Subsequently, the cells were cultured with agitation in water for injection for 3 days at 37° C., so that a cell suspension for ATP luminescence measurement was prepared. […]
Reagents included in a Lucifer HS set (Kikkoman Biochemifa Company) were used as reagents for ATP luminescence measurement. In addition, the Lucifer HS set comprises an ATP elimination enzyme, an ATP extraction reagent, and a luminescent reagent included therewith. […]
100 μL of an ATP extraction solution was added to 100 μL of the mixture after heating. 50 μL of each sample after ATP extraction was added to 50 μL of the luminescent reagent. The thus generated luminescence was measured.
10 μL each of glucose (Wako Pure Chemical Industries, Ltd.), alanine (Wako Pure Chemical Industries, Ltd.), ATPase, 10% methanol, and a phosphate buffer (pH 7.4) (Invitrogen) were added to 50 μL of the M. extorquens cell suspension, thereby preparing a total of 100 μL of a mixture. When glucose, alanine, and methanol were not added, the solution was adjusted to a total 100 μL volume with a phosphate buffer (Table 3, sample Nos. 1 to 5). The mixture was heated at 37° C. for 30 minutes. In the extracellular ATP removal•intracellular ATP increase step (for removing ATP outside of viable cells and increasing ATP within viable cells), 100 μL of an ATP extraction solution was added to 100 μL of the mixture (Table 3, sample Nos. 1 to 4). For comparison of the ATP extraction efficiency of methanol, in the ATP extraction step, 100 μL, of the mixture was mixed with 100 μL of a 1% methanol-containing ATP extraction solution (Table 3, sample No. 5). After ATP extraction, 50 μL of the sample was added to 50 μL of the luminescent reagent, and then the thus generated luminescence was measured. […]
10 μL each of glucose, alanine, ATPase, and if necessary, 10 (v/v) % methanol were added to 50 μL of the M. extorquens cell suspension. Finally, a phosphate buffer (pH 7.4) (Invitrogen) was added for adjustment to a total 100 μL volume. The final concentrations of glucose and alanine ranged from 0.1 mM to 100 mM, and the final concentrations of ATPase and methanol were 10 (v/v) % and 1 (v/v) %, respectively. Each mixture was heated at 37° C. for 30 minutes. 100 μL of an ATP extraction solution was added to 100 μL of the heated mixture, and then 50 μL of sample after ATP extraction was added to 50 μL of a luminescent reagent. The thus generated luminescence was measured.
10 μL each of glucose, alanine, ATPase, and methanol were added to 50 μL of the M. extorquens cell suspension. Finally, a phosphate buffer (pH 7.4) (Invitrogen) was added for adjustment to a total 100 μL volume. The final concentrations of glucose and alanine were each 0.1 mM, the final ATPase concentration was 10 (v/v) %, and the final methanol concentrations ranged from 0% to 80%. Each mixture was heated at 37° C. for 30 minutes. After heating, to remove methanol-containing mixtures, all mixtures were subjected to centrifugal filtration (1 min, 2000 rpm) using Ultrafree-MC, and then mixtures as filtrates were discarded. Subsequently, 200 μL of water was added onto the filter and filtrated to wash the filter. In addition, washing was repeated 5 times. […]

[2] = test system: ATP•luciferase•luciferin reaction; assay: Effect of methanol on ATP luminescent reaction; assay type: biochemical; conditions: 1000 amol ATP/50 μL; for Relative luminescence: methanol-free ATP solution = 100
Procedure: 1 mL of an ATP solution (2×10^5 amol ATP/mL, Kikkoman Biochemifa Company Lucifer ATP standard reagent set) was mixed with 10 μl to 5 mL of 100% methanol (Wako Pure Chemical Industries, Ltd.). Water (Invitrogen) was further added to each solution, and thus ATP/methanol solutions (10 mL each) with final methanol concentrations ranging from 0.1 to 50 (v/v) % were prepared (ATP concentration: 2×10^4 amol ATP/mL). Subsequently, 50 μL of the ATP/methanol solution and 50 μL of a luminescent reagent (Kikkoman Biochemifa Company, included with a Lucifer HS set) were mixed to cause a luminescent reaction to take place. The resulting luminescence levels were measured by photocounting using a photomultiplier.
For comparison, 1 mL of a methanol-free ATP solution (2×10^4 amol ATP/mL) was prepared. Subsequently, 50 μL of an ATP solution and 50 μL of the luminescent reagent were mixed to cause a luminescent reaction to take place, and then the luminescence level was measured.

ATPase = assay: Residual ATPase activity according to methanol concentrations; assay type: biochemical; conditions: 37° C. for 30 minutes
Procedure: 10 μL of an ATPase-containing ATP elimination solution (Kikkoman Biochemifa Company, ATP elimination reagent included with a Lucifer HS set) was mixed with 80 μL of methanol, the concentration of which had been adjusted. An ATP solution (2×10^6 amol/10 μL) was added to the solution and then it was left to stand at 37° C. for 30 minutes. In addition, the final methanol concentrations were adjusted to 0.1 to 80 (v/v) %.
To measure the remaining ATP level after the addition of the above mixture to a luminescent reagent, the mixture was diluted in water to a methanol concentration of 0.1 (v/v) % or less, assuring that the methanol would not affect the ATP luminescent reaction (Reference Example 2, Table 2). Subsequently, 50 μL of the diluted solution (1×10^3 amol ATP/50 μL) was added to 50 μL of the luminescent reagent, and then the luminescence level was measured. Furthermore, an ATP solution (1×10^3 amol/50 μL) to which no ATPase had been added was prepared. The luminescence level according to the ATP solution was also measured. The luminescence level of the ATPase-free ATP solution was considered almost the same as that of an ATP solution to which ATP had been added after the loss of ATPase activity.

Candida albicans = assay: Cell viability (colony count) after methanol exposure; assay type: cell-based; conditions: maximum of 30 (v/v) % methanol, 1 minute; colony count at 0% methanol = 100%
Procedure: (§1) 10 μL of a cell suspension and 90 μL of methanol, the concentration of which had been adjusted, were mixed, thereby preparing 100 μL of a cell/methanol suspension. The final methanol concentrations ranged from 0 to 80 (v/v) %. As microorganisms (cells), Bacillus subtilis (bacterium, spores, ATCC 6633), Staphylococcus aureus (bacterium, aerobic, ATCC 6538), and Candida albicans (fungus, yeast, ATCC 10231) were used. Each cell suspension was mixed with methanol and then the mixture was left to stand for 1 minute. In the case of bacteria, the mixture was applied and spread over R2A medium (Nissui Pharmaceutical Co., Ltd.) and then cultured at 25° C. for 7 days. In the case of fungi, the mixture was applied and spread over PDA medium (Nissui Pharmaceutical Co., Ltd.) and then cultured at 25° C. for 5 days. After culture, the colony count was then measured according to each methanol concentration. The colony count in the case of 0% methanol was designated as 100% cell viability. Cell viability according to each methanol concentration was examined.

Staphylococcus aureus = assay: as above; assay type: cell-based; conditions: maximum of 30 (v/v) % methanol, 1 minute; colony count at 0% methanol = 100%
Procedure: as §1

Bacillus subtilis = assay: as above; assay type: cell-based; conditions: 80 (v/v) % methanol, 1 minute; colony count at 0% methanol = 100%
Procedure: as §1

## CO [Methanol, methanol]
[1]; 1% methanol added to 0.1 mM alanine and 0.1 mM glucose (FIG. 4C)
  Intracellular ATP level of M. extorquens: 1.2 amol/CFU
[1]; methanol 0.1% to 20%, 0.1 mM glucose, 0.1 mM alanine, 10% ATPase, filtration
  Intracellular ATP level of M. extorquens, % of the maximum: ≥ 70%
[1]; methanol 0.1% to 20%, 0.1 mM glucose, 0.1 mM alanine, 10% ATPase, filtration (FIGS. 5A and B)
  Intracellular ATP level of M. extorquens: 1.1 amol/CFU
[1]; methanol 0.5%, 0.1 mM glucose, 0.1 mM alanine, 10% ATPase, filtration (FIG. 5A)
  Intracellular ATP level of M. extorquens: 1.5 amol/CFU
[1]; methanol 30% or more, 0.1 mM glucose, 0.1 mM alanine, 10% ATPase, filtration (FIG. 5B)
  Intracellular ATP level of M. extorquens: 0.15 amol/CFU
[1]; methanol 30% or more, relative to the maximum at 0.5% methanol
  Decrease of intracellular ATP level of M. extorquens: 90%
[2]; 0.1% Methanol
  Luminescence level: 12703 CPS
  Relative luminescence: 110%
[2]; 1% Methanol
  Luminescence level: 10200 CPS
  Relative luminescence: 88%
[2]; 10% Methanol
  Luminescence level: 3345 CPS
  Relative luminescence: 29%
[2]; 50% Methanol
  Luminescence level: 13 CPS
  Relative luminescence: 0%
[2]; 50% Methanol, listed as methanol
  Luminescence level: almost no fluorescence
ATPase; methanol concentration 80 (v/v) %
  Residual ATPase activity: 20%
ATPase; methanol concentrations 0 to 50 (v/v) %
  Residual ATPase activity: retained the activity
Candida albicans
  Cell viability of C. albicans: ≥ 90%
Staphylococcus aureus
  Cell viability of S. aureus: ≥ 90%
Bacillus subtilis
  Cell viability of B. subtilis: 100%

## C[C@H](N)C(=O)O [alanine]
[1]; alanine 1 mM or less in the presence of 1 (v/v) % methanol and 100 mM glucose (FIG. 4A)
  Intracellular ATP level of M. extorquens: 0.9 amol/CFU

## O=C[C@H](O)[C@@H](O)[C@H](O)[C@H](O)CO [glucose]
[1]; glucose varied 0.1 mM to 100 mM in the presence of 1 (v/v) % methanol and 50 mM alanine (FIG. 4B)
  Intracellular ATP level of M. extorquens: about 0.5 amol/CFU
